According to the NIST ThermoML archive (doi:10.1016/j.fluid.2006.09.021):

Conditions: Liquid, Closed cell (Static) method

S [hydrogen sulfide]
Conditions	vapor or sublimation pressure [kPa]
223.19 K	167.4
228.2 K	209.1
233.11 K	257.4
238.04 K	313.9
243.04 K	380.1
248.01 K	456.7
252.97 K	544.2
258.01 K	644.5
263 K	757.7
268.02 K	885.7
273.17 K	1032.3
278.24 K	1194.1
283.26 K	1371.1
288.31 K	1566.6
293.1 K	1767.9
293.3 K	1779.5
298.41 K	2022.2
303.08 K	2259.6
313.11 K	2847.2
323.18 K	3540.4
333.17 K	4339.5
343.16 K	5261.2
353.17 K	6319.2
363.16 K	7533
373.15 K	8932.1
